ChEMBL document CHEMBL3861954, “A novel bis-furan scaffold for transthyretin stabilization and amyloid inhibition” (Eur J Med Chem, 2016)
Active and inactive are the calls of the source. The calls are words filed in the database; no cut-off is given here.

Assays:
[1] = Cytotoxicity against human HepG2 cells assessed as decrease in cell viability after 72 hrs by resazurin reduction assay; format: toxicity, cell-based; settings: read-out: ID50
Transthyretin [2] = target: T1, Transthyretin (Homo sapiens, UniProt P02766); assay: Displacement of [125I]-T4 from wild type TTR in human plasma after 1 hr by PAGE analysis; format: cell-free
Transthyretin [3] = target: T1, Transthyretin; assay: Stabilization of recombinant human wild type TTR expressed in Escherichia coli BL21 (DE3) assessed as inhibition of amyloid beta formation by measuring turbidity at 0.5 to 2 times molar concentration preincubated for 30 mins followed by lowering pH from 7.2 to 4.4 measured after 72 hrs by microplate spectrophotometric method
Transthyretin [4] = target: T1, Transthyretin; assay: Binding affinity to recombinant human wild type TTR expressed in Escherichia coli BL21 (DE3) assessed as dissociation constants for first binding site of TTR by isothermal titration calorimetric method
Transthyretin [5] = target: T1, Transthyretin; assay: Binding affinity to recombinant human wild type TTR expressed in Escherichia coli BL21 (DE3) assessed as dissociation constants for second binding site of TTR by isothermal titration calorimetric method
Transthyretin [6] = target: T1, Transthyretin; assay: Stabilization of recombinant human wild type TTR expressed in Escherichia coli BL21 (DE3) assessed as inhibition of amyloid beta formation by measuring turbidity preincubated for 30 mins followed by lowering pH from 7.2 to 4.4 measured after 72 hrs by microplate spectrophotometric method
[7] = test system: Transthyretin (Homo sapiens), P02766 [V50M]; assay: Stabilization of TTR V30M mutant tetramer in human plasma assessed as tetramer to total protein ratio preincubated overnight at 4 degC followed by further incubation at room temperature for 1 hr in presence of 4M urea by isoelectric focusing densitometric analysis
Transthyretin [8] = target: T1, Transthyretin; assay: Stabilization of wild type TTR tetramer in human plasma assessed as tetramer to total protein ratio preincubated overnight at 4 degC followed by further incubation at room temperature for 1 hr in presence of 4M urea by isoelectric focusing densitometric analysis

inhibition (Transthyretin [2]) | Ratio [7] | Ratio (Transthyretin [8]) | Compound | CC50 at 72 h [1] [µM] | further results
Active |  |  | O=C(O)c1ccc2nc(-c3cc(Cl)cc(Cl)c3)oc2c1 | 247 | 
 |  |  | N[C@@H](Cc1cc(I)c(Oc2cc(I)c(O)c(I)c2)c(I)c1)C(=O)O |  | inhibition (Transthyretin [3]): Active
 |  |  | Oc1c(Cl)cc(-c2cc(Cl)c(O)c(Cl)c2)cc1Cl | 60 | 
 |  |  | Cc1oc(/C=C/c2ccc(Cl)o2)cc1C(=O)O | 225 | Kd (Transthyretin [4]): 0.0039 µM; Kd (Transthyretin [5]): 0.278 µM; IC50 (Transthyretin [6]): 2.49 µM
Active | 0.445 | 0.768 | O=C(O)c1cc(-c2ccc(F)cc2F)cc(I)c1O |  | 
Active | 0.481 | 0.961 | Cc1c(C(=O)O)coc1/C=C/c1ccc(Cl)o1 | 181 | 
